Literature values, collected in patent US11364228B2 (Ovid Therapeutics Inc., priority 2019, dated 2022).

How the values were obtained:
[1] = test system: sleep onset and sleep maintenance; settings: three-month efficacy study, treatment of insomnia
[2] = test system: patients with a history of drug abuse; settings: patients with a history of drug abuse who received gaboxadol
[3] = conventional pharmaceutical compositions such as tablets and capsules

In the case of Oc1noc2c1CCNC2 [Gaboxadol, 4,5,6,7-tetrahydroisoxazolo [5,4-c]pyridine-3-ol], the “effects in sleep onset and sleep maintenance” value [1] is listed as “failed to show significant effects”, the half-life [3] is listed as 1.5 to 2 h and the “time to reach peak concentration” value [3] is listed as ≤ 30 min. The “half-life (t1/2)” value (plasma half-life post administration) was 1.5 to 2 h and the psychiatric adverse events [2] was “steep increase in psychiatric adverse events”.
